Several values for one entry are separate records, joined by “and”; a condition that tells them apart may be missing. Equal values may be shown once. Entries after “also recorded” stand apart in the source; their conditions may differ.
What was measured:
[1] = test system: non-transfected HEK293 cells; assay: Whole-cell recordings in non-transfected cells; type: cell-based, Homo sapiens
Source text: To our surprise, 5 out of the 23 compounds are well characterized as tri-cyclic anti-depressants (TCAs), which are believed to act on neurotransmitter transporters or voltage-gated Na^+ channels ([Cheng and Bahar, 2019]; [Pancrazio et al., 1998]). We therefore characterized the responses of TPC2 channels to TCAs in detail using electrophysiological methods. We first performed whole-cell recordings in HEK293 cells that were transfected with surface-expressed TPC2 mutant channels (TPC2-L^11L^12-AA; abbreviated as TPC2^LL/AA hereafter). No functional difference was noted between wild-type (WT) TPC2 and TPC2^LL/AA channels in terms of channel permeation and gating properties ([Wang et al., 2012]). To facilitate the detection of TPC2-specific currents, we used symmetric Na^+ solutions in the bath (extracellular) and pipette (cytosolic) solutions ([Wang et al., 2012]).
Whole-cell recordings were performed using pipette electrodes with resistance of 3–5 MΩ. […] All bath solutions were applied via a perfusion system that allowed complete solution exchange within a few seconds. Data were collected using an Axopatch 200A patch clamp amplifier, Digidata 1440, and pClamp 10.2 software (Axon Instruments). […] All experiments were conducted at room temperature (21–23°C), and all recordings were analyzed with pClamp 10.2, and Origin 8.0 (OriginLab, Northampton, MA).

[2] = target: T1, PI(3,5)P2-insensitive mutant TPC2 channel (K204A) (Homo sapiens, UniProt Q8NHX9, K204A); assay: Whole-endolysosome recordings of ITPC2-K204A; type: biochemical; conditions: for Normalized I-TPC2: TPC2-K204A
T1 construct: expressed in transfected cells; host or cells: HEK293
Source text: PI(3,5)P2 reportedly binds to Lys204 and adjacent AA residues to activate TPC2 ([She et al., 2019]). […] Lysosomal PI(3,5)P2 may play a permissive role in TPC activation in intact cells ([Ruas et al., 2015]).
(§1) Data are presented as Mean ± S.E.M (n = 3 patches). […] For panels B, D and F, individual data and Mean ± S.E.M are presented. *, p<0.05; **, p<0.01; ***, p<0.001; N.S., no significance. Figure 3—source data 1. […] Figure 3—figure supplement 1. […] Both individual data points and Mean ± S.E.M are presented (n ≥ 3 patches; also see individual data in Figure 3—figure supplement 1—source data 1). Figure 3—figure supplement 1—source data 1.
All TPC1 and TPC2 mutants were generated with a site-directed mutagenesis kit (Qiagen) using EGFP- human TPC1 and TPC2 as the templates. All constructs were confirmed by DNA sequencing.
(§2) Whole-endolysosome recordings were performed on manually isolated enlarged endolysosomes ([Wang et al., 2012]). In brief, a patch pipette was pressed against a cell and quickly pulled away to slice the cell membrane. Enlarged endolysosomes were released into a dish and identified by monitoring EGFP-TPC1/2 or the mCherry-TPC1/2 fluorescence. After formation of a gigaseal between the patch pipette and the enlarged endolysosome, capacitance transients were compensated. Voltage steps of several hundred mVs with millisecond duration were then applied to break into the vacuolar membrane. The whole-endolysosome configuration was verified by the re-appearance of capacitance transients after break-in.
(§3) Data were collected using an Axopatch 200A patch clamp amplifier, Digidata 1440, and pClamp 10.2 software (Axon Instruments). Whole-endolysosome currents were digitized at 10 kHz and filtered at 2 kHz. All experiments were conducted at room temperature (21–23°C), and all recordings were analyzed with pClamp 10.2, and Origin 8.0 (OriginLab, Northampton, MA). The permeability to cations (relative to PNa) was estimated based on following equations ([Lewis, 1979]) and Erev measurement under bi-ionic conditions:(1) PX/PNa=γNa/γX{[Na^+]Luminal/[X^+]Cytoplasmic}{exp([…])} (2) PCa/PNa=γNa/γCa{[Na^+]Cytoplasmic/[4[Ca^2+]Luminal}{exp(ErevF/RT)}{1+exp(ErevF/RT)} where R, T, F, Erev, and γ are, respectively, the gas constant, absolute temperature, Faraday constant, reversal potential, and activity coefficient. The liquid junction potentials were measured and corrected as described ([Neher, 1992]).

TRPML1 = test system: T2, TRPML1; assay: Whole-endolysosome recordings of ITRPML1; type: biochemical; conditions: TRPML1-transfected cells
T2 construct: expressed in transfected cells

TPC1/2 DKO HAP1 cells = assay: Whole-endolysosome recordings in TPC1/2 DKO HAP1 cells; type: biochemical, human; conditions: for whole-endolysome ITPC current: dko HAP1, LyNa-VA1.1 (50 µM) co-applied with PI(3,5)P2 (0.3 µM)
Source text: TCAs, with a general structure of an aromatic greasy core and an aliphatic chain containing a terminal amine, are lysosomotropic compounds that are known to be highly accumulating in the lysosomes due to proton trapping ([Beckmann et al., 2014]). We next tested the effects of LyNa-VAs in hTPC2-transfected Cos1 and HEK293 cells using whole-endolyosome patch-clamp.
as §1
TPC1 and TPC2 CRISPR KO cells were generated in HAP1 cells using the CRISPR/Cas9 system. The TPC1 sequence (5'cttgcagtacttcagcaccc3', TPC1-sgRNA) and TPC2 sequence (5'ccccagcgtcgggctgctgc3', TPC2-sgRNA) were targeted with pSpCas9 (BB)−2A-puro vector (Addgene). HAP1 cells were co-transfected with TPC1 and TPC2-sgRNA expressing vector in the presence of Lipofectamine 2000 (In vitrogen) and selected with 2 μg/ml puromycin for 48 hr. The remaining cells were trypsinized and seeded into 96-well plate after a limiting dilution. When single cell clones were established, their genomic DNAs were extracted and amplified with following primers: TPC1-fw: 5’atggcccagacatgtgactc3’, TPC1-re: 5’ tgcctgtctccatcctctca3’; TPC2-fw: 5’tgagctgagcatgaggcaag3’, TPC2-re: 5’ aaaggacaagtggccctgag3’. The PCR amplicons were then sequenced to confirm the intended genetic disruption.
as §2
as §3, with “coefficient.” for “coefficient. The liquid junction potentials were measured and corrected as described ([Neher, 1992]).”

T1 sequence (Q8NHX9 whole entry K204A): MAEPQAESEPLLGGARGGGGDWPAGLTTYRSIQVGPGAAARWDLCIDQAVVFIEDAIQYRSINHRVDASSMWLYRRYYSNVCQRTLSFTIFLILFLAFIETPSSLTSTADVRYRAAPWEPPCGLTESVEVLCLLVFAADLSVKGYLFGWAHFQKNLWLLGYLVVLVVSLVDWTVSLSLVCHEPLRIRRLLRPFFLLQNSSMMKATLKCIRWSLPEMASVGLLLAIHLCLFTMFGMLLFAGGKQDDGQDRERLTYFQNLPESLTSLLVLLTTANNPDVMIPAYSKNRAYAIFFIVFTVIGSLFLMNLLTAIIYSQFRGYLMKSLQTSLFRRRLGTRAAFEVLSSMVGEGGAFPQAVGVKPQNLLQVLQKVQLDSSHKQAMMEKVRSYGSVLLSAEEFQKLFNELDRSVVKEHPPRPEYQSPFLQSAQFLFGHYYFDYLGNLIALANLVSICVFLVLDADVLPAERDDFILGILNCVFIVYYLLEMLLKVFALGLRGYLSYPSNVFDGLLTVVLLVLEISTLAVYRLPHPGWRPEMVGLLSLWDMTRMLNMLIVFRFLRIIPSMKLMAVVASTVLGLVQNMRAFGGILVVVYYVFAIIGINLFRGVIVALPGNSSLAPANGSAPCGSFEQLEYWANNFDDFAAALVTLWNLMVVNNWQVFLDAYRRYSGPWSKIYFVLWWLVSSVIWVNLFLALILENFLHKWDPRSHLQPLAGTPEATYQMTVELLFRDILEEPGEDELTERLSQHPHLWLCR

For Nc1nc2ccc(OC(F)(F)F)cc2s1 [LyNA1, Riluzole], the “activation of whole-cell currents in non-transfected cells (in words)” value [1] was “not in non-transfected HEK293 cells”, the “activation of whole-endolysosome ITPC2-K204A (in words)” value [2] was “robustly activated whole-endolysosome ITPC2” and the “activation of whole-endolysosome ITRPML1 (in words)” value (TRPML1) was “no current activation; also recorded: lack of the activation effects”. The “activation of whole-endolysosome ITPC in TPC1/2 DKO HAP1 cells (in words)” value (TPC1/2 DKO HAP1 cells) was “not HAP1 cells lacking TPC1 or TPC2; also recorded: not TPC1/2 double KO HAP1 cells”.
In the case of CN(C)CCCN1c2ccccc2CCc2ccc(Cl)cc21 [LyNa-VA1.1, Clomipramine], the EC50 ([2]; K204A +PI(3,5)P2 (50 nM), whole-endolysosome, Figure 3C) is reported as 47 ± 5 µM, the EC50 ([2]; K204A -PI(3,5)P2, whole-endolysosome, Figure 3C) is reported as 56 ± 3 µM and the EC50 ([2]; K204A -pip2, MEAN (Fig. 3D)) is reported as 59.7 µM. For the same compound, the EC50 ([2]; K204A -pip2, individual patches (Fig. 3D)) was 56.4 µM and 68.2 µM and 54.5 µM, the EC50 ([2]; K204A+pip2 (50 nM), MEAN (Fig. 3D)) was 48.7 µM and the EC50 ([2]; K204A+pip2 (50 nM), individual patches (Fig. 3D)) was 45.5 µM and 56.2 µM and 44.4 µM. The “Normalized I-TPC2” value ([2]; 1 µM + PI(3,5)P2 50nM, individual patches) was 0.01018 and 0.1053 and 0.1347, the “Normalized I-TPC2” value ([2]; 1 µM + PI(3,5)P2 50nM, mean) was 0.08342 and the “Normalized I-TPC2” value ([2]; 3 µM + PI(3,5)P2 50nM, individual patches) was -0.08987 and 0.1073 and 0.2183. The “Normalized I-TPC2” value ([2]; 3 µM + PI(3,5)P2 50nM, mean) was 0.07858, the “Normalized I-TPC2” value ([2]; 10 µM + PI(3,5)P2 50nM, individual patches) was -0.1017 and 0.1767 and 0.2594 and the “Normalized I-TPC2” value ([2]; 10 µM + PI(3,5)P2 50nM, mean) was 0.1115. The “Normalized I-TPC2” value ([2]; 10 µM, no PI(3,5)P2, individual patches) was 0.02985 and 0.03877 and 0.00366, the “Normalized I-TPC2” value ([2]; 10 µM, no PI(3,5)P2, mean) was 0.02409 and the “Normalized I-TPC2” value ([2]; 20 µM, no PI(3,5)P2, individual patches) was 0.03731 and 0.1741 and 0.01903. The “Normalized I-TPC2” value ([2]; 20 µM, no PI(3,5)P2, mean) was 0.07682, the “Normalized I-TPC2” value ([2]; 30 µM + PI(3,5)P2 50nM, individual patches) was 0.119 and 0.2972 and 0.3327 and the “Normalized I-TPC2” value ([2]; 30 µM + PI(3,5)P2 50nM, mean) was 0.2496. For the same compound, the “Normalized I-TPC2” value ([2]; 50 µM, no PI(3,5)P2, individual patches) was 0.2736 and 0.4263 and 0.3898, the “Normalized I-TPC2” value ([2]; 50 µM, no PI(3,5)P2, mean) was 0.3632 and the “Normalized I-TPC2” value ([2]; 100 µM + PI(3,5)P2 50nM, individual patches) was 0.8468 and 1 (2×). The “Normalized I-TPC2” value ([2]; 100 µM + PI(3,5)P2 50nM, mean) was 0.9489, the “Normalized I-TPC2” value ([2]; 100 µM, no PI(3,5)P2, individual patches) was 0.8657 and 1 and 0.7921 and the “Normalized I-TPC2” value ([2]; 100 µM, no PI(3,5)P2, mean) was 0.8859. The “Normalized I-TPC2” value ([2]; 200 µM + PI(3,5)P2 50nM, individual patches) was 1 and 0.5762 and 0.9144, the “Normalized I-TPC2” value ([2]; 200 µM + PI(3,5)P2 50nM, mean) was 0.8302 and the “Normalized I-TPC2” value ([2]; 200 µM, no PI(3,5)P2, individual patches) was 1 (2×) and 0.8492. The “Normalized I-TPC2” value ([2]; 200 µM, no PI(3,5)P2, mean) was 0.9497, the “activation of whole-endolysosome ITPC in TPC1/2 DKO HAP1 cells (in words)” value (TPC1/2 DKO HAP1 cells) was “not TPC1/2 DKO” and the “whole-endolysome ITPC current” value (TPC1/2 DKO HAP1 cells; individual) was 15.3 pA and 12.5 pA and 24.7 pA and 10.4 pA. For the same compound, the “whole-endolysome ITPC current” value (TPC1/2 DKO HAP1 cells; mean) was 15.725 pA.

Source: article PMC6905855, “Agonist-specific voltage-dependent gating of lysosomal two-pore Na^+ channels” (eLife, 2019)
